Patent US12195482B1 (Arcus Biosciences, Inc., priority 2022, dated 2025)

How the values were obtained:
[1] = target: T1, recombinant human TYRO3 (Homo sapiens, UniProt Q06418); experiment: Biochemical potency, HTRF KinEASE-TK kinase assay; conditions: 1 nM TYRO3, 700 μM ATP
T1 construct: purchased Invitrogen
T1 sequence (Q06418 41-890): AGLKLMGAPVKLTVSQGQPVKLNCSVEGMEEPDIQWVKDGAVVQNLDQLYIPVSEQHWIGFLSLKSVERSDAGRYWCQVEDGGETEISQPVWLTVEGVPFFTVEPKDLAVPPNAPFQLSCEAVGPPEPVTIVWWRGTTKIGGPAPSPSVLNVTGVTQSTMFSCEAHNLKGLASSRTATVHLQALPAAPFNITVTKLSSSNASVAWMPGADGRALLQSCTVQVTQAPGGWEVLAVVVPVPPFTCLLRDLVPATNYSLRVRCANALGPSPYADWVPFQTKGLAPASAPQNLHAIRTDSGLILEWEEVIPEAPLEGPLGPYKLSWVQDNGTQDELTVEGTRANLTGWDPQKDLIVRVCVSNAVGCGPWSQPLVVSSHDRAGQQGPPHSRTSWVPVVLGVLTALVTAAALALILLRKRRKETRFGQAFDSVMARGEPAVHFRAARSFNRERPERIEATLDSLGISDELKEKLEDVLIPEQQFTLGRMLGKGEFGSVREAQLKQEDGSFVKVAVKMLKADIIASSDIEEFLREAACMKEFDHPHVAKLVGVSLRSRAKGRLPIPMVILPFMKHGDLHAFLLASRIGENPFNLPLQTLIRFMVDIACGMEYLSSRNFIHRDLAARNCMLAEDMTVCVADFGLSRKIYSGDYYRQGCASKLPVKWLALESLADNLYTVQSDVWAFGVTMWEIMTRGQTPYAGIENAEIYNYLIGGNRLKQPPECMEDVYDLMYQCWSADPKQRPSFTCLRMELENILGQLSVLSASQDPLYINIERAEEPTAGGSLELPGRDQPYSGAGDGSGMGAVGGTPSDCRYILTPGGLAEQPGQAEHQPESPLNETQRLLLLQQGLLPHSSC
In short: (§1)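 Phosphorylation of a biotinylated tyrosine-kinase peptide (800 nM) by AXL (5 nM) or TYRO3/MER (1 nM) is measured at 700 µM ATP after 2 h at room temperature, following 1 h enzyme–compound preincubation. Signal is the time-resolved FRET ratio, converted to percent activity.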

[2] = target: T2, recombinant human MER (Homo sapiens, UniProt Q12866); experiment: Biochemical potency, HTRF KinEASE-TK kinase assay; conditions: 1 nM MER, 700 μM ATP
T2 construct: purchased Invitrogen
T2 sequence (Q12866 21-999): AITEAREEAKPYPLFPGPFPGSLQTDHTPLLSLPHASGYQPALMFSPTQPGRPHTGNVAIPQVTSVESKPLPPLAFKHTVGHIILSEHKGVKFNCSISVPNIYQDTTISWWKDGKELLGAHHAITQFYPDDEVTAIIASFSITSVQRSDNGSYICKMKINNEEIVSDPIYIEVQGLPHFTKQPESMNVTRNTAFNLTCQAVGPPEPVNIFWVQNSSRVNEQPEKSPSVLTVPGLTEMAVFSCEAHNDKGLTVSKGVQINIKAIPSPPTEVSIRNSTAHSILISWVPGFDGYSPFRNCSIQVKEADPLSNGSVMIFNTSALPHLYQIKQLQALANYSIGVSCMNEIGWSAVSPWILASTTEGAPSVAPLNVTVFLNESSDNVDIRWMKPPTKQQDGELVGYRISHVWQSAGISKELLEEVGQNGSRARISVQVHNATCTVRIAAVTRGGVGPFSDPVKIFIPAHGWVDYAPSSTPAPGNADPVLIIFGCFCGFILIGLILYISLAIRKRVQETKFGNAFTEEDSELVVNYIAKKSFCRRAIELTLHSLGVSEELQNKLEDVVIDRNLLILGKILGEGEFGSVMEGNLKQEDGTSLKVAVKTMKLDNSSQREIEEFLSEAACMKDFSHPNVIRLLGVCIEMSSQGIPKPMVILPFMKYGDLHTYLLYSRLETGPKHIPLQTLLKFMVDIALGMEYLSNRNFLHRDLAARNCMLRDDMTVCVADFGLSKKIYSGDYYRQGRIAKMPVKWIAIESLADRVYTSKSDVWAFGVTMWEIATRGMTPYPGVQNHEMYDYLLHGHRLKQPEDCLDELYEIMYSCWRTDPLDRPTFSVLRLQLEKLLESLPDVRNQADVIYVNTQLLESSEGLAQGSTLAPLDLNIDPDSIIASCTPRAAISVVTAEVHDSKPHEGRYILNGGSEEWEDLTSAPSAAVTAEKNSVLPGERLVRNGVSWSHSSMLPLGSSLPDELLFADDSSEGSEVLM
In short: as §1

Row | IC50 [1] | IC50 [2] | Compound
1 | < 0.1 µM | < 0.1 µM | C[C@@H]1COC(=O)N1c1cccnc1-c1ccc(-c2n[nH]c3ncc(-c4ccc5c(c4)CC[C@@H](N4C6COCC4C6)CC5)cc23)cc1 [Example 124, (4R)-4-Methyl-3-[2-(4-{5-[(7S)-7-{3-oxa-6-azabicyclo[3.1.1]heptan-6-yl}-6,7,8,9-tetrahydro-5H-benzo[7]annulen-2-yl]-1H-pyrazolo[3,4-b]pyridin-3-yl}phenyl)pyridin-3-yl]-1,3-oxazolidin-2-one]
2 | < 0.1 µM | 0.1 to 1 µM | COc1cccnc1-c1ccc(-c2n[nH]c3ncc(-c4ccc5c(c4)CC[C@@H](N4C6COCC4C6)CC5)cc23)cc1 [Example 166, 6-[(7S)-2-{3-[4-(3-Methoxypyridin-2-yl)phenyl]-1H-pyrazolo[3,4-b]pyridin-5-yl}-6,7,8,9-tetrahydro-5H-benzo[7]annulen-7-yl]-3-oxa-6-azabicyclo[3.1.1]heptane]
3 | < 0.1 µM | < 0.1 µM | Cc1cnc(-c2ccc(-c3n[nH]c4ncc(-c5ccc6c(c5)CC[C@@H](N5C7COCC5C7)CC6)cc34)cc2)c(C)c1 [Example 119, 6-[(7S)-2-{3-[4-(3,5-Dimethylpyridin-2-yl)phenyl]-1H-pyrazolo[3,4-b]pyridin-5-yl}-6,7,8,9-tetrahydro-5H-benzo[7]annulen-7-yl]-3-oxa-6-azabicyclo[3.1.1]heptane]
4 | < 0.1 µM | 0.1 to 1 µM | Cc1ccc(C)c(-c2ccc(-c3n[nH]c4ncc(-c5ccc6c(c5)CC[C@@H](N5C7COCC5C7)CC6)cc34)cc2)n1 [Example 120, 6-[(7S)-2-{3-[4-(3,6-Dimethylpyridin-2-yl)phenyl]-1H-pyrazolo[3,4-b]pyridin-5-yl}-6,7,8,9-tetrahydro-5H-benzo[7]annulen-7-yl]-3-oxa-6-azabicyclo[3.1.1]heptane]
5 | 0.1 to 1 µM | > 1 µM | c1ccc(-c2ccc(-c3c[nH]c4ncc(-c5ccc6c(c5)CC[C@@H](N5C7COCC5C7)CC6)cc34)cc2)nc1 [Example 155, 6-[(7S)-2-{3-[4-(Pyridin-2-yl)phenyl]-1H-pyrrolo[2,3-b]pyridin-5-yl}-6,7,8,9-tetrahydro-5H-benzo[7]annulen-7-yl]-3-oxa-6-azabicyclo[3.1.1]heptane]
6 | < 0.1 µM | 0.1 to 1 µM | Cc1ncc(C)c(-c2ccc(-c3n[nH]c4ncc(-c5ccc6c(c5)CC[C@@H](N5C7COCC5C7)CC6)cc34)cc2)n1 [Example 122, 6-[(7S)-2-{3-[4-(2,5-Dimethylpyrimidin-4-yl)phenyl]-1H-pyrazolo[3,4-b]pyridin-5-yl}-6,7,8,9-tetrahydro-5H-benzo[7]annulen-7-yl]-3-oxa-6-azabicyclo[3.1.1]heptane]
7 | < 0.1 µM | < 0.1 µM | OC1(c2cccnc2-c2ccc(-c3c[nH]c4ncc(-c5ccc6c(c5)CC[C@@H](N5C7COCC5C7)CC6)cc34)cc2)CCC1 [Example 22, 1-[2-[4-[5-[(7S)-7-(3-Oxa-6-azabicyclo[3.1.1]heptan-6-yl)-6,7,8,9-tetrahydro-5H-benzo[7]annulen-3-yl]-1H-pyrrolo[2,3-b]pyridin-3-yl]phenyl]pyridin-3-yl]cyclobutan-1-ol]
8 | < 0.1 µM | 0.1 to 1 µM | O=C1CCCCN1c1cccnc1-c1ccc(-c2n[nH]c3ncc(-c4ccc5c(c4)CC[C@@H](N4C6COCC4C6)CC5)cc23)cc1 [Example 127, 1-[2-(4-{5-[(7S)-7-{3-Oxa-6-azabicyclo[3.1.1]heptan-6-yl}-6,7,8,9-tetrahydro-5H-benzo[7]annulen-2-yl]-1H-pyrazolo[3,4-b]pyridin-3-yl}phenyl)pyridin-3-yl]piperidin-2-one]
9 | 0.1 to 1 µM | 0.1 to 1 µM | CN(C)S(=O)(=O)c1cccnc1-c1ccc(-c2c[nH]c3ncc(-c4ccc5c(c4)CC[C@@H](N4C6COCC4C6)CC5)cc23)cc1 [Example 6, N,N-Dimethyl-2-(4-{5-[(7S)-7-{3-oxa-6-azabicyclo[3.1.1]heptan-6-yl}-6,7,8,9-tetrahydro-5H-benzo[7]annulen-2-yl]-1H-pyrrolo[2,3-b]pyridin-3-yl}phenyl)pyridine-3-sulfonamide]
